Data taken from US8367659B2, “Oxazinyl isoflavonoid compounds, medicaments and use” (Marshall Edwards, Inc., priority 2007, dated 2013).

Experiments:
[1] = test system: TXB2 synthesis in RAW 264.7 murine macrophages; experiment: LPS-induced TXB2 synthesis in RAW 264.7 murine macrophages; assay type: cell-based, mouse; settings: 10 μM; relative to vehicle alone; FIG. 4
Procedure: (§1) The mouse macrophage cell line RAW 264.7 was cultured in DMEM supplemented with foetal calf serum (FCS), […] glutamine and 50 U/ml penicillin/streptomycin. Cells were treated with either test compound (in 0.025% DMSO) or vehicle alone, and added one hour before 50 ng/ml LPS. After incubation for 24 h, culture media was collected for PGE2 or TXB2 measurement by ELISA (Cayman Chemical), and TNFα measurement using an ELISA (Becton Dickinson). Test compounds were examined a concentration of 10 μM. […] Consequently, to assess the effect of test compounds on various analytes, cell viability was taken into consideration with the use of the formula: Actual effect of test compound=measured effect−(effect on cell viability×measured effect)

[2] = Free radical scavenging with DPPH; settings: DPPH, 20 minutes, absorbance 517 nm; Table 4; read-out: Free radical scavenging ability EC50
Procedure: The antioxidant (free radical trapping) activity of test compounds was assessed using the stable free radical compound 2,2-diphenyl-1-picrylhydrazyl (DPPH). A stock solution of DPPH was prepared at a concentration of […] in ethanol and mixed for 10 minutes prior to use. Test compounds at a concentration of 100 μM were reacted with DPPH for, 20 minutes, alter which time the absorbance at 517 nm was determined. Initial screening of was done at 100 μM. The change in absorbance at 517 nm was compared to a reagent blank (DPPH with ethanol alone). […] The IC50 values were estimated as the concentration of test compound that caused a 0.6 change in absorbance (with 1.2 absorbance units representing total scavenging of the DPPH radical).
The antioxidant (free radical trapping) activity of test compounds was assessed using the stable free radical compound 2,2-diphenyl-1-picrylhydrazyl (DPPH). A stock solution of DPPH was prepared […] in ethanol and mixed for 10 minutes prior to use. Initial screening of test compound at a concentration of 100 μM was reacted with DPPH for 20 minutes, after which time the absorbance at 517 nm was determined. The change in absorbance was compared to a reagent blank (DPPH with ethanol alone). […] The IC50 value was estimated as the concentration of test compound that causes a 0.6 change in absorbance (with 1.2 absorbance units representing total scavenging of the DPPH radical).

[3] = test system: human umbilical vein smooth muscle cells (HUVSMC); experiment: Proliferation of human umbilical vein smooth muscle cells (MTT); assay type: cell-based; settings: 10 μM; 10% FCS, 5 days; FIG. 8
Procedure: The effect of test compounds on human umbilical vein smooth muscle cells (HUVSMC) was examined. Cells were seeded into 96 well plates at a low seeding rate of 1.6×10^3 cells per well, and allowed to attach for 24 hours. The cells were then washed twice with medium without FCS and incubated in medium without FCS for 20 hours to serum starve them. Analogue was prepared in medium without FCS at 20 μM and added to the plates and incubated for one hour. Final analogue concentration was therefore 10 μM. The cells were then stimulated by adding medium +20% FCS, to give a final FCS concentration of 10%. The cells were incubated until the control cells i.e. those with FCS and no compound, were just confluent (5 days). An MTT assay was performed, and difference in absorbance in analogue treated cells from the control was calculated using the formula: test/control*100−100. Results
The effect of test compounds on human umbilical vein smooth muscle cells (HUVSMC), was examined. Cells, tissue explants from a neonate (HRI—passage 2), were seeded into 96 well plates at 1×10^3 cells per well, and allowed to attach for 24 hours. They were then washed twice and incubated in medium without foetal calf serum (FCS) for 24-48 hours to serum-starve them. Test compounds were prepared in medium without FCS and added to the plates and incubated for one hour. Medium with FCS was added to give a final concentration of 10% and the plates incubated for 4-5 days until the controls were just confluent.

[4] = test system: PGE2 synthesis in RAW 264.7 murine macrophages; experiment: LPS-induced PGE2 synthesis in RAW 264.7 murine macrophages; assay type: cell-based, mouse; settings: 10 μM; relative to vehicle alone; FIG. 3
Procedure: as §1

cancer cell lines = experiment: Anti-cancer activity, cancer cell lines tested as a group (MTT); assay type: cell-based
[5] = test system: NO synthesis in RAW 264.7 murine macrophages; experiment: LPS-induced NO synthesis in RAW 264.7 murine macrophages (Griess); assay type: cell-based, mouse; settings: 10 μM; relative to vehicle alone; FIG. 6
Procedure: as §1, with “Dickinson). Nitrite concentration is a quantitative indicator of NO production and was determined by the Griess Reaction. Briefly, 100 μL of Griess reagent was added to 50 μL of each supernatant in duplicate. The absorbance at 550 nm was measured (Molecular Devices, SpectraMax 250 microplate spectrophotometer, CA, USA), and nitrite concentrations were determined against a standard curve of sodium nitrite. The percentage nitrite inhibition was calculated as: [100−(nitrite concentration of sample/nitrite of vehicle control LPS cells)×100]. Results” for “Dickinson).”

CP70 = experiment: Anti-cancer activity, CP70 ovarian cancer cells (MTT); assay type: cell-based; settings: 120 h, 5 days
HPAC = experiment: Anti-cancer activity, HPAC pancreatic cancer cells (MTT); assay type: cell-based; settings: Homo sapiens, 120 h, 5 days
MM200 = experiment: Anti-cancer activity, MM200 melanoma cells (MTT); assay type: cell-based; settings: 120 h; 5 days, MTT
[6] = target: T1, GAL4-PPARγ fusion protein (Homo sapiens, UniProt P37231); experiment: PPARγ activity in transfected HEK293 cells (beta-lactamase reporter); assay type: cell-based; settings: FIG. 13: 1 μM
T1 construct: host or cells: HEK293 (human embryonic kidney), stably transfected
T1 sequence (P37231 238-503 limits assumed): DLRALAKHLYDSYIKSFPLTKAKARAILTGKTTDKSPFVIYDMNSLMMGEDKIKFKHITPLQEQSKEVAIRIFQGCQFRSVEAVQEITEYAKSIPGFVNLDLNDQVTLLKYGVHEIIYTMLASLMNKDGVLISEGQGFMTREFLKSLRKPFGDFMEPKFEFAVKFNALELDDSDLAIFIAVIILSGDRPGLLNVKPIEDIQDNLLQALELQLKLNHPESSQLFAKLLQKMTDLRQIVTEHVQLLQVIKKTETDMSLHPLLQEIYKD
T1 sequence (P04386 1-147 partner limits assumed): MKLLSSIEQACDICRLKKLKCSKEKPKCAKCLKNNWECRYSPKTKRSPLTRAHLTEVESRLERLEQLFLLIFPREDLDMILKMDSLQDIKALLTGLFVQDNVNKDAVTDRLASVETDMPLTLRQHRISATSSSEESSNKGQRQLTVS
Procedure: Human HEK293 cells, stably transfected with the PPARγ ligand binding domain fused with the DNA binding domain of the GAL4 protein (GAL4-PPARγ fusion protein), produce beta-lactamase when incubated with PPARγ ligands. Transfected human kidney embryonic cells (Invitrogen Inc., Carlsbad, Calif.) were seeded onto matrigel in 96-well plates and allowed to attach overnight. The following day, vehicle alone (DMSO) or test compound at 1, 5 and 10 μM was added at varying concentrations to cells and incubated for 16-18 hours. Cells were then loaded with a FRET-based fluorescent substrate to assess beta-lactamase activity. Cells were protected from light, and incubated at room temperature for 2 h. Plates were read on a fluorescence plate reader with an excitation wavelength of 409 nm and emission wavelengths of 460 nm and 530 nm. Results were expressed as a ratio of these two wavelengths after the background (cell-free control wells) had been subtracted. PPARγ activity was thus determined by measuring beta-lactamase activity as assessed by a fluorescent product to substrate ratio.

Q: What does the source list for `Oc1ccc(C2=Cc3cc4c(cc3OC2)OCN(c2ccc(O)cc2)C4)cc1` [Compound 8, 4,4′-(Chromeno[6,7-e][1,3]oxazine-3,7 (2H,4H,8H)-diyl)diphenol]?
A: mean change of LPS-induced TXB2 synthesis [1]: greatest inhibition; EC50 [2]: 16 µM; effect on proliferation of HUVSMCs induced by FCS [3]: significantly inhibited the proliferation

Q: Which “mean change of LPS-induced PGE2 synthesis” value [4] does the source give for `COc1ccc(CN2COc3cc4c(cc3C2)C=C(c2ccc(OC)c(OC)c2)CO4)cc1` [Compound 9, 7-(3,4-Dimethoxyphenyl)-3-(4-methoxybenzyl)-2,3,4,8-tetrahydrochromeno[6,7-e][1,3]oxazine] here?
A: greatest inhibition

Q: And the “mean change of LPS-induced TXB2 synthesis” value [1]?
A: greatest inhibition

Q: What about the “toxicity against cancer cells” value (cancer cell lines; where tested) of the same compound?
A: moderate toxicity

Q: And the EC50 [2]?
A: 36 µM

Q: For `COc1ccc(C2=Cc3cc4c(cc3OC2)OCN(c2ccccc2)C4)cc1OC` [Compound 12, 7-(3,4-Dimethoxyphenyl)-3-phenyl-2,3,4,8-tetrahydrochromeno[6,7-e][1,3]oxazine], which “mean change of LPS-induced PGE2 synthesis” value [4] is on record?
A: greatest inhibition

Q: With `COc1ccc(C2=Cc3cc4c(c(C)c3OC2)OCN(Cc2ccccc2)C4)cc1OC` [Compound 13, 3-Benzyl-7-(3,4-dimethoxyphenyl)-10-methyl-2,3,4,8-tetrahydrochromeno[6,7-e][1,3]oxazine] as the compound, how does the EC50 [2] read?
A: 41 µM

Q: Which “mean change of LPS-induced PGE2 synthesis” value [4] does the source give for `CCCN1COc2c(cc3c(c2C)OCC(c2ccc(OC)c(OC)c2)=C3)C1` [Compound 14, 7-(3,4-Dimethoxyphenyl)-10-methyl-3-propyl-2,3,4,8-tetrahydrochromeno[6,7-e][1,3]oxazine] here?
A: greatest inhibition

Q: And the “mean change of LPS-induced TXB2 synthesis” value [1]?
A: greatest inhibition

Q: And the “mean change of LPS-induced NO synthesis” value [5]?
A: greatest inhibition

Q: Which “activity against CP70, HPAC and MM200 cell lines” value (cancer cell lines; CP70, HPAC and MM200) does the source give for `Oc1ccc(C2=Cc3cc4c(cc3OC2)OCN(Cc2ccc(Cl)cc2)C4)cc1` [Compound 15, 4-(3-(4-Chlorobenzyl)-2,3,4,8-tetrahydrochromeno[6,7-e][1,3]oxazin-7-yl)phenol] here?
A: active

Q: And the IC50 (CP70)?
A: 4.41 µM

Q: And the EC50 [2]?
A: 22.5 µM

Q: And the IC50 (HPAC)?
A: 7.89 µM

Q: And the IC50 (MM200)?
A: 9.4 ± 1.5 µM

Q: For `COCCCN1COc2cc3c(cc2C1)C=C(c1ccc(O)cc1)CO3` [Compound 16, 4-(3-(3-Methoxypropyl)-2,3,4,8-tetrahydrochromeno[6,7-e][1,3]oxazin-7-yl)phenol], which IC50 (cancer cell lines; read-out: most potent activity against the respective cell lines tested) is on record?
A: 1 to 5 µM

Q: And the EC50 [2]?
A: 22 µM

Q: What about the IC50 (HPAC) of the same compound?
A: 3.88 µM

Q: And the IC50 (MM200)?
A: 1.8 µM

Q: Which “PPARγ activation, increase in beta-lactamase activity over media only control” value (“PPARγ activation, increase” below) [6] does the source give for `Cc1ccc(N2COc3cc4c(cc3C2)C=C(c2ccc(O)cc2)CO4)cc1` [Compound 18, 4-(3-p-Tolyl-2,3,4,8-tetrahydrochromeno[6,7-e][1,3]oxazin-7-yl)phenol] here?
A: PPARγ agonist activity

Q: And the EC50 [2]?
A: 29 µM

Q: What about the “effect on proliferation of HUVSMCs induced by FCS” value (“effect on proliferation” for short) [3] of the same compound?
A: significantly inhibited the proliferation

Q: For `COc1ccc(C2=Cc3cc4c(c(C)c3OC2)OCN(c2ccc(C)cc2)C4)cc1OC` [Compound 19, 7-(3,4-Dimethoxyphenyl)-10-methyl-3-p-tolyl-2,3,4,8-tetrahydrochromeno[6,7-e][1,3]oxazine], which EC50 [2] is on record?
A: 41 µM

Q: What about the “effect on proliferation” value [3] of the same compound?
A: significantly inhibited the proliferation

Q: What about the “mean change of LPS-induced NO synthesis” value [5] of the same compound?
A: greatest inhibition

Q: For `Cc1ccc(N2COc3cc4c(cc3C2)C=C(c2cccc(O)c2)CO4)cc1` [Compound 20, 3-(3-p-Tolyl-2,3,4,8-tetrahydrochromeno[6,7-e][1,3]oxazin-7-yl)phenol], which “PPARγ activation, increase” value [6] is on record?
A: PPARγ agonist activity

Q: And the EC50 [2]?
A: 38 µM

Q: And the “effect on proliferation” value [3]?
A: significantly inhibited the proliferation

Q: Which EC50 [2] does the source give for `N#Cc1ccc(N2COc3cc4c(cc3C2)C=C(c2cccc(O)c2)CO4)cc1` [Compound 21, 4-(7-(3-Hydroxyphenyl)chromeno[6,7-e][1,3]oxazin-3(2H,4H,8H)-yl)benzonitrile] here?
A: 44 µM

Q: What does the source list for `O=[N+]([O-])c1cccc(N2COc3cc4c(cc3C2)C=C(c2ccc(O)cc2)CO4)c1` [Compound 23, 4-(3-(3-Nitrophenyl)-2,3,4,8-tetrahydrochromeno[6,7-e][1,3]oxazin-7-yl)phenol]?
A: PPARγ activation, increase in beta-lactamase activity over media only control [6]: PPARγ agonist activity; mean change of LPS-induced PGE2 synthesis [4]: greatest inhibition; mean change of LPS-induced TXB2 synthesis [1]: greatest inhibition; EC50 [2]: 27 µM; mean change of LPS-induced NO synthesis [5]: greatest inhibition

Q: With `CCCN1COc2c(cc3c(c2Br)OCC(c2ccc(O)cc2)=C3)C1` [Compound 25, 4-(10-Bromo-3-propyl-2,3,4,8-tetrahydrochromeno[6,7-e][1,3]oxazin-7-yl)phenol] as the compound, how does the EC50 [2] read?
A: 23 µM

Q: For `Cc1c2c(cc3c1OCN(c1ccc(O)cc1)C3)C=C(c1cccc(O)c1)CO2` [Compound 26, 3,4′-(10-Methyl-chromeno[6,7-e][1,3]oxazine-3,7(2H,4H,8H)-diyl)diphenol], which EC50 [2] is on record?
A: 26 µM

Q: For `CC(C)(C)c1ccc(CN2COc3cc4c(cc3C2)C=C(c2ccc(O)cc2)CO4)cc1` [Compound 29, 4-(3-(4-tert-Butylbenzyl)-2,3,4,8-tetrahydrochromeno[6,7-e][1,3]oxazin-7-yl)phenol], which “PPARγ activation, increase” value [6] is on record?
A: PPARγ agonist activity
